Experimental data from ChEMBL document CHEMBL1121371, “Antihypertensive 5,6-diarylpyridazin-3-ones” (1980).

System: Rattus norvegicus
Assay: Antihypertensive activity in spontaneously hypertensive rats, measured as average blood pressure at 100 mg/kg, p.o. before predose; No significant lowering of blood pressure
Type: functional, organism-based
Design: dose 100 mg/kg

SMILES | BP
COc1ccc(-c2nn(CCO)c(=O)c(C(C)=O)c2-c2ccc(OC)cc2)cc1 | Not significant
COc1ccc(OC)c(-c2c(-c3ccccc3)c(-c3ccccc3)nn(CCO)c2=O)c1 | Not significant
Oc1nnc(-c2ccccc2)c(-c2ccccc2)c1-c1ccc(Br)cc1 | Not significant
O=C(O)c1c(O)nnc(-c2ccc(Cl)cc2)c1-c1ccc(Cl)cc1 | Not significant
CCOC(=O)CCCn1nc(-c2ccccc2)c(-c2ccccc2)c(C(C)=O)c1=O | Not significant
Cc1ccc(-c2nnc(O)c(-c3ccccc3)c2-c2ccc(C)cc2)cc1 | Not significant
CC(=O)c1c(-c2ccc(Cl)cc2)c(-c2ccc(Cl)cc2)nn(CC(N)=O)c1=O | Not significant
CC(=O)c1c(-c2ccc(Cl)cc2)c(-c2ccc(Cl)cc2)nn(CC(=O)O)c1=O | Not significant
CC(=O)c1c(O)nnc(-c2ccc(F)cc2)c1-c1ccc(F)cc1 | Not significant
N#Cc1c(-c2ccc(Cl)cc2)c(-c2ccc(Cl)cc2)nn(CCCl)c1=O | Not significant
CC(O)c1c(-c2ccccc2)c(-c2ccccc2)nn(CCO)c1=O (stereo unspecified) | Not significant
COc1ccccc1-c1c(-c2ccccc2)c(-c2ccccc2)nn(CCO)c1=O | Not significant
Cc1ccc(-c2c(O)nnc(-c3ccccc3)c2-c2ccccc2)cc1 | Not significant
CCCC(=O)c1c(-c2ccc(Cl)cc2)c(-c2ccc(Cl)cc2)nn(C(C)CO)c1=O (stereo unspecified) | Not significant
CCOC(=O)CCCn1nc(-c2ccc(Cl)cc2)c(-c2ccc(Cl)cc2)c(C#N)c1=O | Not significant
CC(=O)c1c(-c2ccc(OCc3ccccc3)cc2)c(-c2ccc(OCc3ccccc3)cc2)nn(CCO)c1=O | Not significant
Cn1nc(-c2ccccc2)c(-c2ccccc2)c(C#N)c1=O | Not significant
O=C(O)CCCn1nc(-c2ccccc2)c(-c2ccccc2)c(-c2ccccc2)c1=O | Not significant
CC(=O)c1c(-c2ccccc2)c(-c2ccccc2)nn(C)c1=O | Not significant
O=c1cc(-c2ccc(Cl)cc2)c(-c2ccc(Cl)cc2)nn1CCO | Not significant
CC(=O)c1c(-c2ccc(O)cc2)c(-c2ccc(O)cc2)nn(CC[n+]2ccccc2)c1=O | Not significant
COc1ccc(-c2nn(CCO)c(=O)c(C#N)c2-c2ccc(OC)cc2)cc1 | Not significant

SMILES | BP
CC(=O)c1c(-c2ccc(Cl)cc2)c(-c2ccc(Cl)cc2)nn(CCCl)c1=O | Not significant
O=C(O)c1c(-c2ccc(Cl)cc2)c(-c2ccc(Cl)cc2)nn(CCO)c1=O | Not significant
CC(=O)c1c(-c2ccc(Cl)cc2)c(-c2ccc(Cl)cc2)nn(CCN2C(=O)c3ccccc3C2=O)c1=O | Not significant
CCOC(=O)Cn1nc(-c2ccc(OC)cc2)c(-c2ccc(OC)cc2)c(C(C)=O)c1=O | Not significant
O=c1c(-c2ccc3ccccc3c2)c(-c2ccccc2)c(-c2ccccc2)nn1CCO | Not significant
CCOC(=O)c1c(-c2ccc(Cl)cc2)c(-c2ccc(Cl)cc2)nn(CCO)c1=O | Not significant
COc1ccccc1-c1c(O)nnc(-c2ccccc2)c1-c1ccccc1 | Not significant
COc1ccc(OC)c(-c2c(O)nnc(-c3ccccc3)c2-c2ccccc2)c1 | Not significant
COc1ccc(-c2c(-c3ccccc3)c(-c3ccccc3)nn(CCO)c2=O)cc1 | Not significant
N#Cc1c(O)nnc(-c2ccc(Br)cc2)c1-c1ccc(Br)cc1 | Not significant
N#Cc1c(O)nnc(-c2ccc(Cl)c(Cl)c2)c1-c1ccc(Cl)c(Cl)c1 | Not significant
CC(=O)c1c(-c2ccc(Cl)cc2)c(-c2ccc(Cl)cc2)nn(CC(C)O)c1=O (stereo unspecified) | Not significant
CC(=O)c1c(-c2ccc(Cl)cc2)c(-c2ccc(Cl)cc2)nn(CCCN(C)C)c1=O | Not significant
COc1cccc(-c2c(-c3ccccc3)c(-c3ccccc3)nn(CCO)c2=O)c1 | Not significant
CC(=O)c1c(O)nnc(-c2ccc(Cl)cc2)c1-c1ccc(Cl)cc1 | Not significant
CC(=O)c1c(-c2ccc(Cl)cc2)c(-c2ccc(Cl)cc2)nn(CC(O)CCl)c1=O (stereo unspecified) | Not significant
Cc1ccc(-c2nnc(O)c(C#N)c2-c2ccc(C)cc2)cc1 | Not significant
CC(=O)c1c(-c2ccc(Cl)cc2)c(-c2ccc(Cl)cc2)nn(CC2CO2)c1=O (stereo unspecified) | Not significant
COc1ccc(-c2c(-c3ccccc3)c(-c3ccccc3)nn(CCO)c2=O)cc1OC | Not significant
N#Cc1c(-c2ccc(F)cc2)c(-c2ccc(F)cc2)nn(CCO)c1=O | Not significant
Oc1nnc(-c2ccccc2)c(-c2ccccc2)c1-c1ccccc1 | Not significant
CC(C)C(=O)c1c(-c2ccc(Cl)cc2)c(-c2ccc(Cl)cc2)nn(CCO)c1=O | Not significant

SMILES | BP
CC(=O)c1c(-c2ccc(Cl)cc2)c(-c2ccc(Cl)cc2)nn(CCI)c1=O | Not significant
CC(=O)c1c(-c2ccc(Cl)cc2)c(-c2ccc(Cl)cc2)nn(CC(O)CNC(C)C)c1=O (stereo unspecified) | Not significant
COC(=O)Cn1nc(-c2ccc(Cl)cc2)c(-c2ccc(Cl)cc2)c(C#N)c1=O | Not significant
N#Cc1c(O)nnc(-c2ccccc2Cl)c1-c1ccccc1Cl | Not significant
CC(=O)c1c(O)nnc(-c2ccccc2)c1-c1ccccc1 | Not significant
CC(=O)c1c(-c2ccc(O)cc2)c(-c2ccc(O)cc2)nn(CCO)c1=O | Not significant
COc1cc(-c2c(O)nnc(-c3ccc(Cl)cc3)c2-c2ccc(Cl)cc2)cc(OC)c1OC | Not significant
CCC(=O)c1c(-c2ccc(Cl)cc2)c(-c2ccc(Cl)cc2)nn(CCO)c1=O | Not significant
O=C(c1ccccc1)c1c(-c2ccccc2)c(-c2ccccc2)nn(CCO)c1=O | Not significant
CCn1nc(-c2ccc(Cl)cc2)c(-c2ccc(Cl)cc2)c(C(C)=O)c1=O | Not significant
CCCC(=O)c1c(O)nnc(-c2ccc(Cl)cc2)c1-c1ccc(Cl)cc1 | Not significant
C=Cn1nc(-c2ccc(Cl)cc2)c(-c2ccc(Cl)cc2)c(C(C)=O)c1=O | Not significant
CCCC(=O)c1c(-c2ccc(Cl)cc2)c(-c2ccc(Cl)cc2)nn(CCO)c1=O | Not significant
CCOC(=O)NCCn1nc(-c2ccc(Cl)cc2)c(-c2ccc(Cl)cc2)c(C(C)=O)c1=O | Not significant
O=S(=O)(c1ccccc1)c1c(O)nnc(-c2ccccc2)c1-c1ccccc1 | Not significant
COc1ccc(-c2c(O)nnc(-c3ccccc3)c2-c2ccccc2)cc1 | Not significant
N#Cc1c(-c2ccc(Cl)c(Cl)c2)c(-c2ccc(Cl)c(Cl)c2)nn(CCO)c1=O | Not significant
CC(=O)c1c(-c2ccccc2)c(-c2ccccc2)nn(CCCC(=O)O)c1=O | Not significant
O=c1c(-c2ccc(Br)cc2)c(-c2ccccc2)c(-c2ccccc2)nn1CCO | Not significant
O=c1c(-c2ccccc2)c(-c2ccc(Cl)cc2)c(-c2ccc(Cl)cc2)nn1CCO | Not significant
N#Cc1c(-c2ccccc2Cl)c(-c2ccccc2Cl)nn(CCO)c1=O | Not significant
COc1ccc(-c2nnc(O)c(C(C)=O)c2-c2ccc(OC)cc2)cc1 | Not significant
